Peptide text beside a SMILES is read from it.
Key:
[1] = system: E. coli ATCC 25922; assay: microbe, parasite or virus in culture; conditions: for Minimum Inhibitory Concentration (MIC): ATCC 25922, 18 h; for Minimum Bactericidal Concentration (MBC): ATCC 25922, 24 h
Text: (§1) A total of 18 bacterial strains relevant to orthopedic infections were used for microbiological tests, including 8 ATCC (American Type Culture Collection, ATCC, Manassas, VA, USA) and 10 clinical isolates (CI) from the Laboratory of Clinical Chemistry and Microbiology, IRCCS Ospedale Galeazzi–Sant’Ambrogio of Milan (Italy) strain collection. The ATCC strains were used for the first screening (MIC/MBC) of all the AMPs produced, while the clinical isolates were used for further MIC/MBC assays on selected AMPs. Among CI, S. epidermidis GOI1153754-03-14 has been already characterized and used in previous studies. All the strains were stocked at −80°C and working stocks were stored at −20 °C. At the occurrence, the bacteria were resuscitated in Brain Hearth Infusion (BHI, Millipore, Milan, Italy) broth at 37 °C for 18 h from the working stocks.
(§2) To determine the minimum inhibitory concentration (MIC) and the minimum bactericidal concentration (MBC), ISO20776-1 and Clinical and Laboratory Standards Institute guidelines were followed. A commercial synthetic LL-37 (Aurogene, Rome, Italy) was used as the control in the MIC and MBC assays. A stock solution of each AMP was prepared at 600 µg/mL to achieve a final concentration of 300 µg/mL. […] The MIC was determined according to the aforementioned standard guidelines. The MBC was determined by plating 2 µL of culture from each well of the MIC plates on a Tryptic Soy Agar (TSA, Millipore, Milan, Italy) plate and incubated for 24 h at 37 °C. The concentration at which there was no growth was recorded as MBC. Each experiment was carried out in triplicate. Representative MIC and MBC values for vancomycin and gentamicin were assessed to offer a benchmark comparison for the AMPs. Quality control was conducted with Staphylococcus aureus ATCC 29,213 and vancomycin according to EUCAST guidelines.

[2] = system: P. aeruginosa ATCC 27853; assay: microbe, parasite or virus in culture; conditions: for Minimum Inhibitory Concentration (MIC): ATCC 27853, 18 h; for Minimum Bactericidal Concentration (MBC): ATCC 27853, 24 h
Text: as §1, §2

[3] = system: S. aureus ATCC 25923; assay: microbe, parasite or virus in culture; conditions: for Minimum Inhibitory Concentration (MIC): ATCC 25923, 18 h; for Minimum Bactericidal Concentration (MBC): ATCC 25923, 24 h
Text: as §1, §2

[4] = system: S. aureus ATCC 43300; assay: microbe, parasite or virus in culture; conditions: for Minimum Inhibitory Concentration (MIC): ATCC 43300, 18 h; for Minimum Bactericidal Concentration (MBC): ATCC 43300, 24 h
Text: as §1, §2

[5] = system: S. aureus ATCC 49230; assay: microbe, parasite or virus in culture; conditions: for Minimum Inhibitory Concentration (MIC): ATCC 49230, 18 h; for Minimum Bactericidal Concentration (MBC): ATCC 49230, 24 h
Text: as §1, §2

[6] = system: S. epidermidis ATCC 14990; assay: microbe, parasite or virus in culture; conditions: for Minimum Inhibitory Concentration (MIC): ATCC 14990, 18 h; for Minimum Bactericidal Concentration (MBC): ATCC 14990, 24 h
Text: as §1, §2

[7] = system: S. epidermidis ATCC 35984; assay: microbe, parasite or virus in culture; conditions: for Minimum Inhibitory Concentration (MIC): ATCC 35984, 18 h; for Minimum Bactericidal Concentration (MBC): ATCC 35984, 24 h
Text: as §1, §2

[8] = system: S. epidermidis GOI1153754-03-14 (CI); assay: microbe, parasite or virus in culture; conditions: GOI1153754-03-14 (CI, 18 h)
Text: as §1, §2

[9] = system: E. coli Eco53 (CI); conditions: Eco53 (CI, 18 h)
Text: as §1, §2

[10] = system: E. coli Eco61 (CI); conditions: Eco61 (CI, 18 h)
Text: as §1, §2

[11] = system: E. coli Eco75 (CI); conditions: Eco75 (CI, 18 h)
Text: as §1, §2

[12] = system: P. aeruginosa Pae2 (CI); conditions: Pae2 (CI, 18 h)
Text: as §1, §2

[13] = system: P. aeruginosa Pae61 (CI); conditions: Pae61 (CI, 18 h)
Text: as §1, §2

[14] = system: P. aeruginosa Pae82 (CI); conditions: Pae82 (CI, 18 h)
Text: as §1, §2

[15] = system: S. aureus Sau221 (CI); conditions: Sau221 (CI, 18 h)
Text: as §1, §2

[16] = system: S. aureus Sau39 (CI); conditions: Sau39 (CI, 18 h)
Text: as §1, §2

[17] = system: S. aureus Sau89 (CI); conditions: Sau89 (CI, 18 h)
Text: as §1, §2

[18] = system: Staphylococci; conditions: 18 h
Text: as §1, §2

[19] = system: red blood cells (RBC); assay: Hemolytic activity assessment; assay type: cell-based; conditions: at 18.75 µg/mL; human RBC suspension in PBS, 1 h 37 °C, absorbance 414 nm; 0.1% Triton-X100 = 100%
Method: The pellet containing erythrocytes was washed 3 times in PBS centrifuging at 700× g for 8 min at RT. Finally, 40 µL of pellet containing red blood cells (RBC) was diluted in 8 mL of PBS, obtaining a 0.5% v/v RBC suspension.
The 96-well V plate was incubated at 37 °C for 1 h, then centrifuged at 1000× g for 10 min, and the supernatant (60 µL) was transferred to a 96-well flat bottom microplate for the absorption analysis on a microplate reader at 414 nm. The positive control (PC, 100% hemolysis) consisted of 0.1% Triton-X100 in PBS (pH 7.4), while PBS alone served as the negative control (NC, 0% hemolysis). Each hemolysis activity assessment test was carried out in two replicates and repeated three times.
NCs and PCs were averaged, then results were normalized to the average of PC and NC according to the following formula: % Hemolysis = (Abs treated − Abs NC/Abs PC − Abs NC) × 100. The hemolytic activity was also tested on TFA to exclude any toxicity caused by the buffer.

[20] = system: ATCC strains; conditions: 18 h
Text: as §1, §2

CC[C@H](C)[C@H](NC(=O)[C@H](CCCNC(=N)N)NC(=O)[C@H](CCC(N)=O)NC(=O)[C@@H](NC(=O)[C@@H](NC(=O)[C@H](CCCNC(=N)N)NC(=O)[C@H](CCCCN)NC(=O)[C@H](Cc1ccccc1)NC(=O)CN)[C@@H](C)CC)C(C)C)C(=O)N[C@@H](CCCCN)C(=O)N[C@@H](CC(=O)O)C(=O)N[C@@H](Cc1ccccc1)C(=O)N[C@@H](CC(C)C)C(=O)N[C@@H](CCCNC(=N)N)C(=O)N[C@@H](CC(N)=O)C(=O)N[C@@H](CC(C)C)C(=O)N[C@H](C(N)=O)C(C)C [GF-17] (H-GFKRIVQRIKDFLRNLV-NH2)
Minimum Inhibitory Concentration (MIC) [1]: 9.38 µg/mL
Minimum Bactericidal Concentration (MBC) [1]: 300.00 µg/mL
Minimum Inhibitory Concentration (MIC) [2]: 18.75 µg/mL
Minimum Bactericidal Concentration (MBC) [2]: 75.00 µg/mL
Minimum Inhibitory Concentration (MIC) [3]: 2.34 µg/mL
Minimum Bactericidal Concentration (MBC) [3]: 37.50 µg/mL
Minimum Inhibitory Concentration (MIC) [4]: 4.69 µg/mL
Minimum Bactericidal Concentration (MBC) [4]: 150.00 µg/mL
Minimum Inhibitory Concentration (MIC) [5]: 4.69 µg/mL
Minimum Bactericidal Concentration (MBC) [5]: 75.00 µg/mL
Minimum Inhibitory Concentration (MIC) [6]: 4.69 µg/mL
Minimum Bactericidal Concentration (MBC) [6]: 75.00 µg/mL
Minimum Inhibitory Concentration (MIC) [7]: 2.34 µg/mL
Minimum Bactericidal Concentration (MBC) [7]: 4.69 µg/mL
Minimum Bactericidal Concentration (MBC) [8]: 37.50 µg/mL
Minimum Inhibitory Concentration (MIC) [8]: 2.34 µg/mL
Minimum Bactericidal Concentration (MBC) [9]: 75.00 µg/mL
Minimum Inhibitory Concentration (MIC) [9]: 18.75 µg/mL
Minimum Bactericidal Concentration (MBC) [10]: 18.75 µg/mL
Minimum Inhibitory Concentration (MIC) [10]: 9.38 µg/mL
Minimum Bactericidal Concentration (MBC) [11]: 75.00 µg/mL
Minimum Inhibitory Concentration (MIC) [11]: 18.75 µg/mL
Minimum Bactericidal Concentration (MBC) [12]: 150.00 µg/mL
Minimum Inhibitory Concentration (MIC) [12]: 150.00 µg/mL
Minimum Bactericidal Concentration (MBC) [13]: 150.00 µg/mL
Minimum Inhibitory Concentration (MIC) [13]: 37.50 µg/mL
Minimum Bactericidal Concentration (MBC) [14]: 300.00 µg/mL
Minimum Inhibitory Concentration (MIC) [14]: 75.00 µg/mL
Minimum Bactericidal Concentration (MBC) [15]: 18.75 µg/mL
Minimum Inhibitory Concentration (MIC) [15]: 9.38 µg/mL
Minimum Bactericidal Concentration (MBC) [16]: 9.38 µg/mL
Minimum Inhibitory Concentration (MIC) [16]: 2.34 µg/mL
Minimum Bactericidal Concentration (MBC) [17]: 4.69 µg/mL
Minimum Inhibitory Concentration (MIC) [17]: 4.69 µg/mL
MBC range (bactericidal effect) against Staphylococci [18]: 4.69 to 150 µg/mL
Hemolytic activity [19]: below 1%

CC[C@H](C)[C@H](NC(=O)[C@H](CCCNC(=N)N)NC(=O)[C@H](CCC(N)=O)NC(=O)[C@@H](NC(=O)[C@@H](NC(=O)[C@H](CCCNC(=N)N)NC(=O)[C@@H](N)CCCCN)[C@@H](C)CC)C(C)C)C(=O)N[C@@H](CCCCN)C(=O)N[C@@H](CC(=O)O)C(=O)N[C@@H](Cc1ccccc1)C(=O)N[C@@H](CC(C)C)C(=O)N[C@@H](CCCNC(=N)N)C(N)=O [KR-12] (H-KRIVQRIKDFLR-NH2)
Minimum Inhibitory Concentration (MIC) [1]: >300.00 µg/mL
Minimum Bactericidal Concentration (MBC) [1]: >300.00 µg/mL
Minimum Inhibitory Concentration (MIC) [2]: >300.00 µg/mL
Minimum Bactericidal Concentration (MBC) [2]: >300.00 µg/mL
Minimum Inhibitory Concentration (MIC) [3]: >300.00 µg/mL
Minimum Bactericidal Concentration (MBC) [3]: >300.00 µg/mL
Minimum Inhibitory Concentration (MIC) [4]: >300.00 µg/mL
Minimum Bactericidal Concentration (MBC) [4]: >300.00 µg/mL
Minimum Inhibitory Concentration (MIC) [5]: >300.00 µg/mL
Minimum Bactericidal Concentration (MBC) [5]: >300.00 µg/mL
Minimum Inhibitory Concentration (MIC) [6]: >300.00 µg/mL
Minimum Bactericidal Concentration (MBC) [6]: >300.00 µg/mL
Minimum Inhibitory Concentration (MIC) [7]: >300.00 µg/mL
Minimum Bactericidal Concentration (MBC) [7]: >300.00 µg/mL
MIC values over all ATCC strains tested [20]: greater than 300 µg/mL

Source: article PMC11350787, “Antimicrobial Properties and Cytotoxicity of LL-37-Derived Synthetic Peptides to Treat Orthopedic Infections” (Antibiotics, 2024)
